Reference: PubChem BioAssay AID1963853 (Molecular Pharmacology Branch, DTP, NCI, 2024)

Test system: 266295-075-R-J1-PDC spheroid viability
Experiment: Anticancer human tumor 266295-075-R-J1-PDC patient-derived head and neck squamous carcinoma cell line growth inhibition [POLQ]
Details: spheroids with HUVEC and MSC; for IC50: curve of first compound; for viability, T/C: stronger effect = lower value; active = viability on the fitted dose curve at most 10% of control; inactive = the rest
Procedure, shortened: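 Complex spheroid viability model combining PDC tumour cells with endothelial (HUVEC) and MSC stromal cells. Novobiocin, ART-558 or RP6685 were tested singly and in combination with standard and investigational anticancer drugs. Each was titrated in half-log steps from near clinical Cmax, or from 10 microM where Cmax was unknown.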

[1] = second compound 0.0316 µM, first compound 0.0316 µM
[2] = second compound 0.0316 µM, first compound 0.1 µM
[3] = second compound 0.0316 µM, first compound 0.316 µM
[4] = second compound 0.0316 µM, first compound 1 µM
[5] = second compound 0.0316 µM, first compound 3.16 µM
[6] = second compound 0.0316 µM, first compound 10 µM
[7] = second compound 0.1 µM, first compound 0.0316 µM
[8] = second compound 0.1 µM, first compound 0.1 µM
[9] = second compound 0.1 µM, first compound 0.316 µM
[10] = second compound 0.1 µM, first compound 1 µM
[11] = second compound 0.1 µM, first compound 3.16 µM
[12] = second compound 0.1 µM, first compound 10 µM
[13] = second compound 0.316 µM, first compound 0.0316 µM
[14] = second compound 0.316 µM, first compound 0.1 µM
[15] = second compound 0.316 µM, first compound 0.316 µM
[16] = second compound 0.316 µM, first compound 1 µM
[17] = second compound 0.316 µM, first compound 3.16 µM
[18] = second compound 0.316 µM, first compound 10 µM
[19] = second compound 1 µM, first compound 0.0316 µM
[20] = second compound 1 µM, first compound 0.1 µM
[21] = second compound 1 µM, first compound 0.316 µM
[22] = second compound 1 µM, first compound 1 µM
[23] = second compound 1 µM, first compound 3.16 µM
[24] = second compound 1 µM, first compound 10 µM
[25] = second compound 3.16 µM, first compound 0.0316 µM
[26] = second compound 3.16 µM, first compound 0.1 µM
[27] = second compound 3.16 µM, first compound 0.316 µM
[28] = second compound 3.16 µM, first compound 1 µM
[29] = second compound 3.16 µM, first compound 3.16 µM
[30] = second compound 3.16 µM, first compound 10 µM
[31] = second compound 10 µM, first compound 0.0316 µM
[32] = second compound 10 µM, first compound 0.1 µM
[33] = second compound 10 µM, first compound 0.316 µM
[34] = second compound 10 µM, first compound 1 µM
[35] = second compound 10 µM, first compound 3.16 µM
[36] = second compound 10 µM, first compound 10 µM
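Note: spheroids exposed to compounds for seven days before readout.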

C#Cc1c(F)ccc2cc(O)cc(-c3ncc4c(N5CC6CCC(C5)N6)nc(OCC56CCCN5CC(F)C6)nc4c3F)c12 (stereo not given) + COC1C(OC(N)=O)C(O)C(Oc2ccc3c(O)c(NC(=O)c4ccc(O)c(CC=C(C)C)c4)c(=O)oc3c2C)OC1(C)C
> 10 µM: IC50 (second compound 0.0316 µM) | IC50 (second compound 0.1 µM) | IC50 (second compound 0.316 µM) | IC50 (second compound 1 µM) | IC50 (second compound 3.16 µM) | IC50 (second compound 10 µM)
inactive: viability, T/C [1] 97.4% | viability, T/C [2] 79.1% | viability, T/C [3] 69.6% | viability, T/C [4] 65.3% | viability, T/C [5] 60.8% | viability, T/C [6] 58.2% | viability, T/C [7] 94.9% | viability, T/C [8] 84.9% | viability, T/C [9] 74.9% | viability, T/C [10] 60.1% | viability, T/C [11] 71.6% | viability, T/C [12] 54.2% | viability, T/C [13] 100% | viability, T/C [14] 88.5% | viability, T/C [15] 87.8% | viability, T/C [16] 68% | viability, T/C [17] 67.3% | viability, T/C [18] 60.3% | viability, T/C [19] 91.3% | viability, T/C [20] 78.1% | viability, T/C [21] 80.1% | viability, T/C [22] 87% | viability, T/C [23] 65.2% | viability, T/C [24] 56.9% | viability, T/C [25] 94.6% | viability, T/C [26] 77.8% | viability, T/C [27] 79.5% | viability, T/C [28] 67.7% | viability, T/C [29] 60.4% | viability, T/C [30] 54.3% | viability, T/C [31] 96.9% | viability, T/C [32] 91.9% | viability, T/C [33] 79.1% | viability, T/C [34] 64% | viability, T/C [35] 70.2% | viability, T/C [36] 55.7%

Nc1ccn(C2OC(CO)C(O)C2(F)F)c(=O)n1 (stereo not given) + Cc1cccc(N(C)C(=O)C2C(O)CCN2c2nc(C)cc(C(F)(F)F)c2C#N)c1
> 10 µM: IC50 (second compound 0.0316 µM) | IC50 (second compound 0.1 µM) | IC50 (second compound 0.316 µM) | IC50 (second compound 1 µM) | IC50 (second compound 3.16 µM) | IC50 (second compound 10 µM)
inactive: viability, T/C [1] 93.5% | viability, T/C [2] 81.9% | viability, T/C [3] 81.5% | viability, T/C [4] 68.3% | viability, T/C [5] 79.5% | viability, T/C [6] 69.4% | viability, T/C [7] 85.8% | viability, T/C [8] 93% | viability, T/C [9] 79.6% | viability, T/C [10] 76% | viability, T/C [11] 83.3% | viability, T/C [12] 73.7% | viability, T/C [13] 87.8% | viability, T/C [14] 78.5% | viability, T/C [15] 77% | viability, T/C [16] 94.9% | viability, T/C [17] 76.6% | viability, T/C [18] 72.4% | viability, T/C [19] 99.8% | viability, T/C [20] 82.8% | viability, T/C [21] 86% | viability, T/C [22] 84.7% | viability, T/C [23] 80.8% | viability, T/C [24] 80.2% | viability, T/C [25] 90.6% | viability, T/C [26] 96.9% | viability, T/C [27] 72.8% | viability, T/C [28] 78.1% | viability, T/C [29] 91% | viability, T/C [30] 67.1% | viability, T/C [31] 86.8% | viability, T/C [32] 88.4% | viability, T/C [33] 72% | viability, T/C [34] 75.1% | viability, T/C [35] 82.1% | viability, T/C [36] 68.2%

CC1COCCN1c1cc(-c2ccnn2C)c2ccnc(-c3ccn[nH]3)c2n1 (stereo not given) + COC1C(OC(N)=O)C(O)C(Oc2ccc3c(O)c(NC(=O)c4ccc(O)c(CC=C(C)C)c4)c(=O)oc3c2C)OC1(C)C
4.51 µM: IC50 (second compound 3.16 µM)
4.35 µM: IC50 (second compound 0.0316 µM)
2.01 µM: IC50 (second compound 0.1 µM)
inactive: viability, T/C [1] 91.2% | viability, T/C [2] 84.7% | viability, T/C [3] 71.2% | viability, T/C [4] 63.3% | viability, T/C [5] 54.3% | viability, T/C [6] 42.1% | viability, T/C [7] 91.7% | viability, T/C [8] 92.2% | viability, T/C [9] 65.8% | viability, T/C [10] 58% | viability, T/C [11] 48.4% | viability, T/C [12] 41.6% | viability, T/C [13] 89.9% | viability, T/C [14] 90.6% | viability, T/C [15] 63.7% | viability, T/C [16] 61.3% | viability, T/C [17] 43.6% | viability, T/C [18] 38.7% | viability, T/C [19] 110% | viability, T/C [20] 91.2% | viability, T/C [21] 79.1% | viability, T/C [22] 62.5% | viability, T/C [23] 53.3% | viability, T/C [24] 41% | viability, T/C [25] 98.2% | viability, T/C [26] 82.8% | viability, T/C [27] 77.2% | viability, T/C [28] 63.9% | viability, T/C [29] 53.9% | viability, T/C [30] 41.9% | viability, T/C [31] 87.6% | viability, T/C [32] 94.7% | viability, T/C [33] 75.7% | viability, T/C [34] 57.1% | viability, T/C [35] 47.8% | viability, T/C [36] 38.1%
3.89 µM: IC50 (second compound 1 µM)
1.91 µM: IC50 (second compound 0.316 µM)
1.97 µM: IC50 (second compound 10 µM)

CC1COCCN1c1cc(C2(S(C)(=N)=O)CC2)nc(-c2ccnc3[nH]ccc23)n1 (stereo not given) + Nc1ccc(C#CCN(C(=O)Cc2ncc(C(F)(F)F)cc2C(F)(F)F)c2ccc(F)cc2)nn1
inactive: viability, T/C [1] 110% | viability, T/C [2] 93.3% | viability, T/C [3] 83.4% | viability, T/C [4] 75.5% | viability, T/C [5] 67.5% | viability, T/C [6] 63% | viability, T/C [7] 102% | viability, T/C [8] 116% | viability, T/C [9] 92% | viability, T/C [10] 93.9% | viability, T/C [11] 80.2% | viability, T/C [12] 57.2% | viability, T/C [13] 81.9% | viability, T/C [14] 102% | viability, T/C [15] 92.5% | viability, T/C [16] 79% | viability, T/C [17] 78.4% | viability, T/C [18] 45.6% | viability, T/C [19] 97.8% | viability, T/C [20] 109% | viability, T/C [21] 96.6% | viability, T/C [22] 87.6% | viability, T/C [23] 67.6% | viability, T/C [24] 48.9% | viability, T/C [25] 89.9% | viability, T/C [26] 141% | viability, T/C [27] 100% | viability, T/C [28] 92.8% | viability, T/C [29] 69.4% | viability, T/C [30] 57.3% | viability, T/C [31] 95.4% | viability, T/C [32] 99% | viability, T/C [33] 95.5% | viability, T/C [34] 92.7% | viability, T/C [35] 70.6% | viability, T/C [36] 62.9%
> 10 µM: IC50 (second compound 0.0316 µM) | IC50 (second compound 0.1 µM) | IC50 (second compound 3.16 µM) | IC50 (second compound 10 µM)
8.58 µM: IC50 (second compound 0.316 µM)
9.41 µM: IC50 (second compound 1 µM)

O=C(c1cc(Cc2n[nH]c(=O)c3ccccc23)ccc1F)N1CCN(C(=O)C2CC2)CC1 + Cc1cccc(N(C)C(=O)C2C(O)CCN2c2nc(C)cc(C(F)(F)F)c2C#N)c1
> 10 µM: IC50 (second compound 0.0316 µM) | IC50 (second compound 0.1 µM) | IC50 (second compound 0.316 µM) | IC50 (second compound 1 µM) | IC50 (second compound 3.16 µM) | IC50 (second compound 10 µM)
inactive: viability, T/C [1] 91% | viability, T/C [2] 104% | viability, T/C [3] 80.3% | viability, T/C [4] 85.6% | viability, T/C [5] 93.2% | viability, T/C [6] 104% | viability, T/C [7] 95.5% | viability, T/C [8] 103% | viability, T/C [9] 91.4% | viability, T/C [10] 89.6% | viability, T/C [11] 99.3% | viability, T/C [12] 78% | viability, T/C [13] 86.6% | viability, T/C [14] 86.5% | viability, T/C [15] 91.7% | viability, T/C [16] 91.4% | viability, T/C [17] 107% | viability, T/C [18] 75.3% | viability, T/C [19] 121% | viability, T/C [20] 110% | viability, T/C [21] 89.5% | viability, T/C [22] 92.1% | viability, T/C [23] 82.5% | viability, T/C [24] 85.9% | viability, T/C [25] 92.8% | viability, T/C [26] 97.1% | viability, T/C [27] 93.5% | viability, T/C [28] 110% | viability, T/C [29] 121% | viability, T/C [30] 89% | viability, T/C [31] 101% | viability, T/C [32] 99% | viability, T/C [33] 95.1% | viability, T/C [34] 107% | viability, T/C [35] 115% | viability, T/C [36] 94.6%
